In article PMC7707621, “Oxidized Juncuenin B Analogues with Increased Antiproliferative Activity on Human Adherent Cell Lines: Semisynthesis and Biological Evaluation” (Journal of Natural Products, 2020):
“Also recorded” adds a separate entry of the source.

Each molecule was assayed on A2780 cells (assay: MTT antiproliferative assay on A2780). Settings: 10 μM.
Type: cell-based, human
Experimental: (§1) The antiproliferative assays of the products were carried out by a standard MTT method on human breast (MCF-7, T47D), cervical (HeLa, SiHa, C33A), and ovarian (A2780) cancer cells, and NIH/3T3 mouse embryonic fibroblast cell lines. In the first step, the diastereomeric and racemic mixtures 1–11 and the starting compound, juncuenin B, were tested to obtain information about their antiproliferative activity.
(§2) The antiproliferative activity and tumor selectivity of the compounds were measured by standard MTT assays. Tumor cell lines MCF-7, T47D, HeLa, A2780, and noncancerous NIH/3T3 were provided by European Collection of Authenticated Cell Cultures (ECACC, Salisbury, UK); cell lines SiHa and C33A by LGC Standards GmbH (Wesel, Germany). All chemicals and materials used for the antiproliferative assays were purchased from Sigma Aldrich Ltd. (Budapest, Hungary).
(§3) Growth-inhibition properties of racemates and pure enantiomer compounds were determined by standard MTT assays on six human malignant gynecological cell lines (MCF-7, T47D, HeLa, SiHa, C33A, A2780). To investigate tumor selectivity, the MTT assay was repeated on mouse embryonic fibroblast cells (NIH/3T3) under the same conditions. All cell lines were maintained in minimal essential medium (MEM) supplemented with 10% fetal bovine serum, 1% nonessential amino acids, and 1% penicillin–streptomycin–amphotericin B mixture, and were stored in humidified air containing 5% CO2 at 37 °C. All cell types were seeded into 96–well plates at a density of 5000 with the exception of C33a, which was seeded at a density of 10 000 and treated by increasing concentrations (0.1–30 μM) of the compounds for 72 h under cell culturing conditions. After the incubation, 5 mg/mL MTT [3-(4,5-dimethylthiazol-2-yl)-2,5-diphenyltetrazolium bromide] solution was added to samples for 4 h and precipitated blue formazan crystals were dissolved in DMSO. Absorbance values of the samples were measured at 545 nm using a microplate reader (Stat Fax-2100, Awareness Technologies Inc., Palm City, FL, USA) and untreated cells were used as control. Normalized sigmoidal dose–response curves were fitted to the determined data and the IC50 values were calculated by GraphPad Prism 5.01 (GraphPad Software, San Diego, CA, USA). Cisplatin (Ebewe Pharma GmbH, Unterach, Austria) was used as a reference agent in the same concentration range.

SMILES | Growth inhibition (% ± SEM), A2780
C=CC1=C(C)C(=O)C=C2C3(OC)C=CC(=O)C(C)=C3CCC21OC (centres unmarked) [Compound 2b] | < 10%

Same assay, conditions: 30 μM

SMILES | Growth inhibition (% ± SEM), A2780
C=CC1=C(C)C(=O)C=C2C3(OC)C=CC(=O)C(C)=C3CCC21OC (centres unmarked) [Compound 2b] | 38.92±3.78%

Same assay, conditions: Homo sapiens, A2780, 10 μM; read-out: Growth inhibition (% ± SEM), A2780

SMILES | inhibition at 10 µM
C=CC1=C(C)C(=O)C=C2C3(OC)C=CC(=O)C(C)=C3CCC21OC (centres unmarked) [Compound 2a] | < 10%

Same assay, conditions: Homo sapiens, A2780, 30 μM; read-out: Growth inhibition (% ± SEM), A2780

SMILES | inhibition at 30 µM
C=CC1=C(C)C(=O)C=C2C3(OC)C=CC(=O)C(C)=C3CCC21OC (centres unmarked) [Compound 2a] | 54.6 ± 3.67%

These molecules were tested on MCF-7, T47D, HeLa, SiHa, C33A, A2780 cells (assay: MTT antiproliferative assay, panel of human gynecological cancer cell lines (result in words)). Settings: not given.
Type: cell-based
Experimental: as §1, §2, §3

SMILES | antiproliferative activity (in words)
C=CC1=C(C)C(=O)C=C2C3(OC)C=CC(=O)C(C)=C3CCC21OC (centres unmarked) [Compound 2a] | did not exert antiproliferative activity; also recorded: No significant activities
C=CC1=C(C)C(=O)C=C2C3(OC)C=CC(=O)C(C)=C3CCC21OC (centres unmarked) [Compound 2b] | did not exert antiproliferative activity; also recorded: No significant activities

Each molecule was assayed on MCF-7 cells (assay: MTT antiproliferative assay on MCF-7). Settings: 10 μM.
Type: cell-based, human
Experimental: as §1, §2, §3

SMILES | Growth inhibition (% ± SEM), MCF-7
C=CC1=C(C)C(=O)C=C2C3(OC)C=CC(=O)C(C)=C3CCC21OC (centres unmarked) [Compound 2b] | 27.86±1.80%

Same assay, conditions: 30 μM

SMILES | Growth inhibition (% ± SEM), MCF-7
C=CC1=C(C)C(=O)C=C2C3(OC)C=CC(=O)C(C)=C3CCC21OC (centres unmarked) [Compound 2b] | 46.79±1.23%

Same assay, conditions: Homo sapiens, MCF7, 10 μM; read-out: Growth inhibition (% ± SEM), MCF-7

SMILES | inhibition at 10 µM
C=CC1=C(C)C(=O)C=C2C3(OC)C=CC(=O)C(C)=C3CCC21OC (centres unmarked) [Compound 2a] | 40.3 ± 0.95%

Same assay, conditions: Homo sapiens, MCF7, 30 μM; read-out: Growth inhibition (% ± SEM), MCF-7

SMILES | inhibition at 30 µM
C=CC1=C(C)C(=O)C=C2C3(OC)C=CC(=O)C(C)=C3CCC21OC (centres unmarked) [Compound 2a] | 30.5 ± 1.82%

These molecules were tested on HeLa cells (assay: MTT antiproliferative assay on HeLa). Settings: 10 μM.
Type: cell-based, human
Experimental: as §1, §2, §3

SMILES | Growth inhibition (% ± SEM), HeLa
C=CC1=C(C)C(=O)C=C2C3(OC)C=CC(=O)C(C)=C3CCC21OC (centres unmarked) [Compound 2b] | 16.35±1.56%

Same assay, conditions: 30 μM

SMILES | Growth inhibition (% ± SEM), HeLa
C=CC1=C(C)C(=O)C=C2C3(OC)C=CC(=O)C(C)=C3CCC21OC (centres unmarked) [Compound 2b] | 38.33±1.22%

Same assay, conditions: Homo sapiens, HeLa, 10 μM; read-out: Growth inhibition (% ± SEM), HeLa

SMILES | inhibition at 10 µM
C=CC1=C(C)C(=O)C=C2C3(OC)C=CC(=O)C(C)=C3CCC21OC (centres unmarked) [Compound 2a] | 32.3 ± 4.15%

Same assay, conditions: Homo sapiens, HeLa, 30 μM; read-out: Growth inhibition (% ± SEM), HeLa

SMILES | inhibition at 30 µM
C=CC1=C(C)C(=O)C=C2C3(OC)C=CC(=O)C(C)=C3CCC21OC (centres unmarked) [Compound 2a] | 30 ± 0.74%

Each molecule was assayed on C33A cells (assay: MTT antiproliferative assay on C33A). Settings: 10 μM.
Type: cell-based, human
Experimental: as §1, §2, §3

SMILES | Growth inhibition (% ± SEM), C33a
C=CC1=C(C)C(=O)C=C2C3(OC)C=CC(=O)C(C)=C3CCC21OC (centres unmarked) [Compound 2b] | < 10%

Same assay, conditions: 30 μM

SMILES | Growth inhibition (% ± SEM), C33a
C=CC1=C(C)C(=O)C=C2C3(OC)C=CC(=O)C(C)=C3CCC21OC (centres unmarked) [Compound 2b] | 23.25±2.82%

Same assay, conditions: Homo sapiens, C-33-A, 10 μM; read-out: Growth inhibition (% ± SEM), C33a

SMILES | inhibition at 10 µM
C=CC1=C(C)C(=O)C=C2C3(OC)C=CC(=O)C(C)=C3CCC21OC (centres unmarked) [Compound 2a] | < 10%

Same assay, conditions: Homo sapiens, C-33-A, 30 μM; read-out: Growth inhibition (% ± SEM), C33a

SMILES | inhibition at 30 µM
C=CC1=C(C)C(=O)C=C2C3(OC)C=CC(=O)C(C)=C3CCC21OC (centres unmarked) [Compound 2a] | 31.9 ± 3.75%

The molecules below were run on SiHa cells (assay: MTT antiproliferative assay on SiHa). Settings: 10 μM.
Type: cell-based, human
Experimental: as §1, §2, §3

SMILES | Growth inhibition (% ± SEM), SiHa
C=CC1=C(C)C(=O)C=C2C3(OC)C=CC(=O)C(C)=C3CCC21OC (centres unmarked) [Compound 2b] | 14.10±2.36%

Same assay, conditions: 30 μM

SMILES | Growth inhibition (% ± SEM), SiHa
C=CC1=C(C)C(=O)C=C2C3(OC)C=CC(=O)C(C)=C3CCC21OC (centres unmarked) [Compound 2b] | 15.32±0.68%

Same assay, conditions: Homo sapiens, SiHa, 10 μM; read-out: Growth inhibition (% ± SEM), SiHa

SMILES | inhibition at 10 µM
C=CC1=C(C)C(=O)C=C2C3(OC)C=CC(=O)C(C)=C3CCC21OC (centres unmarked) [Compound 2a] | 15.4 ± 1.68%

Same assay, conditions: Homo sapiens, SiHa, 30 μM; read-out: Growth inhibition (% ± SEM), SiHa

SMILES | inhibition at 30 µM
C=CC1=C(C)C(=O)C=C2C3(OC)C=CC(=O)C(C)=C3CCC21OC (centres unmarked) [Compound 2a] | 16.9 ± 2.31%

The molecules below were run on T47D cells (assay: MTT antiproliferative assay on T47D). Settings: 10 μM.
Type: cell-based, human
Experimental: as §1, §2, §3

SMILES | Growth inhibition (% ± SEM), T47d
C=CC1=C(C)C(=O)C=C2C3(OC)C=CC(=O)C(C)=C3CCC21OC (centres unmarked) [Compound 2b] | 16.79±1.72%

Same assay, conditions: 30 μM

SMILES | Growth inhibition (% ± SEM), T47d
C=CC1=C(C)C(=O)C=C2C3(OC)C=CC(=O)C(C)=C3CCC21OC (centres unmarked) [Compound 2b] | 25.66±2.53%

Same assay, conditions: Homo sapiens, T47D, 10 μM; read-out: Growth inhibition (% ± SEM), T47d

SMILES | inhibition at 10 µM
C=CC1=C(C)C(=O)C=C2C3(OC)C=CC(=O)C(C)=C3CCC21OC (centres unmarked) [Compound 2a] | < 10%

Same assay, conditions: Homo sapiens, T47D, 30 μM; read-out: Growth inhibition (% ± SEM), T47d

SMILES | inhibition at 30 µM
C=CC1=C(C)C(=O)C=C2C3(OC)C=CC(=O)C(C)=C3CCC21OC (centres unmarked) [Compound 2a] | 19.8 ± 0.61%
